Like-named read-outs stand apart in the source and are kept apart here.
Tests used:
[1] = system: rat adipocytes; test: In vitro lipolysis assay (antilipolytic activity in rat adipocytes); format: cell-based; conditions: norepinephrine-stimulated lipolysis, glycerol assayed, 60 min, read-out: Lipo ec50
Description: Determination of Antilipolytic Activity in Rat Adipocytes
Isolation of Adipocytes from Epididymal Fat Pads
Adipose tissue is removed from anesthetized rats and rinsed twice in incubation medium (2.09 g sodium bicarbonate and 0.04 g EDTA, disodium salt, in 1 L Krebs buffer). Each rat (300-350 g) yields approximately 4 mL of adipose tissue. The adipose tissue (35 mL) is cut into small pieces with scissors and washed with incubation medium (50 mL). The mixture is poured into the barrel of a 50 mL syringe to which is attached a short piece of clamped tubing instead of a needle. The aqueous phase is allowed to drain. A second wash with incubation medium is passed through the syringe. The tissue is added to 50 mL of collagenase solution (collagenase (90 mg), bovine serum albumin (BSA) (500 mg), and 0.1 M calcium chloride solution (1 mL), in incubation medium (50 mL)) in a 1 L bottle. The mixture is shaken in an environmental at 37° C. for about 60 minutes under an atmosphere of 95% oxygen/5% carbon dioxide to effect digestion of the tissue. The dispersed cells are poured through 2 layers of cheese cloth into a 100 mL plastic beaker. The undigested clumps in the cloth are rinsed once with incubation medium (20 mL). The cells in the beaker are centrifuged in 2 plastic tubes for 30 seconds at room temperature at 300 rpm. The aqueous phase is aspirated from beneath the loosely packed layer of floating fat cells and discarded. The adipocytes are gently poured into a 250 mL plastic beaker containing 100 mL of rinse solution (1 g BSA per 100 mL incubation medium). After gentle stirring the centrifugation step is repeated. Another wash with rinse solution follows. The cells are pooled and their volume is estimated with a graduated cylinder. The adipocytes are diluted in twice their volume of assay buffer (incubation medium (120 mL), BSA (1.2 g), pyruvic acid (13 mg)).
The assay is performed in 20 mL plastic scintillation vials and the total assay volume is 4.2 mL. Assay buffer (2.5 mL), diluted adipocytes (1.5 mL), and a solution of the compound to be tested (12.3 μL) adenosine agonist (12.3 μl; varying concentration) is incubated in the environmental shaker for 15 minutes, then the reaction is started with norepinephrine solution (41.2 μL) (10 nM, in a carrier solution containing water (100 mL), BSA (4 mg), and 0.1 M EDTA (20 μL))and adenosine deaminase (1 μg/mL, 41.2 μl). After sixty minutes in the shaker the reaction is terminated by putting the vials on ice. […] The hard lipid layer is removed by aspiration and the aqueous layer is assayed for glycerol (400 μl of sample). The positive control is done in the absence of any adenosine agonist, substituting water in place of the solution to be tested.

[2] = Rattus norvegicus, Adipocyte, 1 h

SMILES | EC50 [1] [nM] | melting point | EC50 [1, 2] [nM]
CC(C)NC(=O)[C@H]1C[C@@H](n2cnc3c(N[C@H]4CCN(c5cc(C(F)(F)F)ccn5)C4)ncnc32)[C@H](O)[C@@H]1O [Example 2, (1S,2R,3S,4R)-2,3-dihydroxy-4-[6-[1-(4-trifluormethylpyridin-2-yl)pyrrolidin-3(S)-ylamino]purin-9-yl]cyclopentanecarboxylic acid isopropylamide] | 10.9 | – | –
OC[C@H]1C[C@@H](n2cnc3c(N[C@H]4CCN(c5ccc(C(F)(F)F)cc5)C4)ncnc32)[C@H](O)[C@@H]1O [Example 5, (1R,2S,3R,5R)-3-[6-[1-(4-trifluoromethylphenyl)-pyrrolidin-3(S)-ylamino]-purin-9-yl]-5-hydroxymethylcyclopentane-1,2-diol] | – | 111 to 114 °C | 2
O=C1C[C@H](Nc2ncnc3c2ncn3[C@@H]2C[C@H](CO)[C@@H](O)[C@H]2O)CN1Cc1ccccc1 [Example 6, 4(S)-1-benzyl-4-[9-((1R,2S,3R,5R)-1,2-dihydroxy-5-hydroxymethylcyclopent-3-yl)-9H-purin-6-ylamino]pyrrolidin-2-one] | 267 | – | –
O=[N+]([O-])c1ccc(N2CCC(Nc3ncnc4c3ncn4[C@@H]3C[C@H](CO)[C@@H](O)[C@H]3O)C2)cc1 (stereo partly drawn) [Example 7, (1R,2S,3R,5R)-5-hydroxymethyl-3-[6-[1-(4-nitrophenyl)pyrrolidin-3-ylamino]-purin-9-yl]cyclopentane-1,2-diol] | – | – | 2.82
OC[C@H]1O[C@@H](n2cnc3c(N[C@H]4CCN(c5ccc(-c6cccs6)cn5)C4)ncnc32)[C@H](O)[C@@H]1O [Example 18, (2R,3R,4S,5R)-5-hydroxymethyl-2-[6-[1-(5-thiophen-2-ylpyridin-2-yl)-pyrrolidin-3(S)-ylamino]-purin-9-yl]tetrahydrofuran-3,4-diol] | – | – | 2.24
COc1cc(N2CC[C@H](Nc3ncnc4c3ncn4[C@@H]3O[C@H](CO)[C@@H](O)[C@H]3O)C2)ncn1 [Example 20, (2R,3R,4S,5R)-5-hydroxymethyl-2-[6-[1-(6-methoxypyrimidin-4-yl)pyrrolidin-3(S)-ylamino]-purin-9-yl]tetrahydrofuran-3,4-diol] | – | 251 to 253 °C | 1.37
OC[C@H]1O[C@@H](n2cnc3c(N[C@H]4CCN(c5cc(Cl)ncn5)C4)ncnc32)[C@H](O)[C@@H]1O [Example 21, (2R,3R,4S,5R)-5-hydroxymethyl-2-[6-[1-(6-chloropyrimidin-4-yl)pyrrolidin-3(S)-ylamino]-purin-9-yl]-tetrahydrofuran-3,4-diol] | – | – | 2.43
OC[C@H]1C[C@@H](n2cnc3c(N[C@@H]4CCNC4)ncnc32)[C@H](O)[C@@H]1O [Example 28, (1R,2S,3R,5R)-5-hydroxymethyl-3-[6-((3R)-pyrrolidin-3-ylamino)-purin-9-yl]cyclopentane-1,2-diol] | – | 166 °C (dec.) | –
OC[C@H]1C[C@@H](n2cnc3c(N[C@H]4CCN(c5cnc6ccccc6c5)C4)ncnc32)[C@H](O)[C@@H]1O [Example 36, (1R,2S,3R,5R)-5-hydroxymethyl-3-[6-[1-(quinolin-3-yl)pyrrolidin-3(S)-ylamino]-purin-9-yl]cyclopentane-1,2-diol] | – | 135 to 138 °C | –
O=[N+]([O-])c1ccc(N2CC[C@H](Nc3ncnc4c3ncn4[C@@H]3C[C@H](CO)[C@@H](O)[C@H]3O)C2)cc1 [Example 37, (1R,2S,3R,5R)-5-hydroxymethyl-3-[6-[1-(4-nitrophenyl)-pyrrolidin-3(S)-ylamino]-purin-9-yl]cyclopentane-1,2-diol] | – | – | 2.8
OC[C@H]1C[C@@H](n2cnc3c(N[C@H]4CCN(c5cc(C(F)(F)F)c(C(F)(F)F)cn5)C4)ncnc32)[C@H](O)[C@@H]1O [Example 38, (1R,2S,3R,5R)-3-[6-[1-(4,5-bistrifluorpyridin-2-yl)pyrrolidin-3(S)-ylamino]-purin-9-yl]-5-hydroxymethylcyclopentane-1,2-diol] | 114 | – | –
OC[C@H]1C[C@@H](n2cnc3c(N[C@H]4CCN(c5ccc6cc(Br)ccc6n5)C4)ncnc32)[C@H](O)[C@@H]1O [Example 42, (1R,2S,3R,5R)-3-[6-[1-(6-bromoquinolin-2-yl)pyrrolidin-3(S)-ylamino]-purin-9-yl]-5-hydroxymethylcyclopentane-1,2-diol] | – | – | 30
OC[C@H]1C[C@@H](n2cnc3c(N[C@H]4CCN(c5cc(Cl)ncn5)C4)ncnc32)[C@H](O)[C@@H]1O [Example 45, (1R,2S,3R,5R)-3-[6-[1-(6-chloropyrimidin-4-yl)pyrrolidin-3(S)-ylamino]-purin-9-yl]-5-hydroxymethylcyclopentane-1,2-diol] | – | 180 to 182 °C | –
COC[C@H]1C[C@@H](n2cnc3c(N[C@H]4CCN(c5cc(Cl)ncn5)C4)ncnc32)[C@H](O)[C@@H]1O [Example 46, (1R,2S,3R,5R)-3-[6-[1-(6-chloropyrimidin-4-yl)pyrrolidin-3(S)-ylamino]-purin-9-yl]-5-methoxymethylcyclopentane-1,2-diol] | – | – | 92.5
OC[C@H]1C[C@@H](n2cnc3c(N[C@H]4CCN(c5ccc(Cl)nn5)C4)ncnc32)[C@H](O)[C@@H]1O [Example 47, (1R,2S,3R,5R)-3-[6-[1-(6-chloropyridazin-3-yl)pyrrolidin-3(S)-ylamino]-purin-9-yl]-5-hydroxymethylcyclopentane-1,2-diol] | – | – | 129
COC[C@H]1C[C@@H](n2cnc3c(N[C@H]4CCN(c5cc(OC)ncn5)C4)ncnc32)[C@H](O)[C@@H]1O [Example 48, (1R,2S,3R,5R)-5-methoxymethyl-3-[6-[1-(6-methoxypyrimidin-4-yl)pyrrolidin-3(S)-ylamino]-purin-9-yl]cyclopentane-1,2-diol] | – | 118 to 120 °C | –
CC(C)OC[C@H]1C[C@@H](n2cnc3c(N[C@H]4CCN(c5ccc(C(F)(F)F)cn5)C4)ncnc32)[C@H](O)[C@@H]1O [Example 49, (1R,2S,3R,5R)-5-isopropoxymethyl-3-[6-[1-(5-trifluoromethylpyridin2-yl)pyrrolidin-3(S)-ylamino]-purin-9-yl]cyclopentane-1,2-diol] | – | 157 to 158 °C | –
CC(C)OC[C@H]1C[C@@H](n2cnc3c(N[C@H]4CCN(c5cc(C(F)(F)F)ccn5)C4)ncnc32)[C@H](O)[C@@H]1O [Example 50, (1R,2S,3R,5R)-5-isopropoxymethyl-3-[6-[1-(4-trifluoromethylpyridin2-yl)pyrrolidin-3(S)-ylamino]-purin-9-yl]cyclopentane-1,2-diol] | – | – | 365
COC[C@H]1C[C@@H](n2cnc3c(N[C@H]4CCN(c5ccc(Cl)cn5)C4)ncnc32)[C@H](O)[C@@H]1O [Example 53, (1R,2S,3R,5R)-3-[6-[1-(5-chlorpyridin-2-yl)pyrrolidin-3(S)-ylamino]-purin-9-yl]-5-methoxymethylcyclopentane-1,2-diol] | 18.6 | – | –
COC[C@H]1C[C@@H](n2cnc3c(N[C@H]4CCN(c5ccccc5)C4)ncnc32)[C@H](O)[C@@H]1O [Example 58, (1R,2S,3R,5R)-5-methoxymethyl-3-[6-[1-phenylpyrrolidin-3-(S)-ylamino]-purin-9-yl]cyclopentan-1,2-diol] | – | 106 °C | –
OC[C@H]1C[C@@H](n2cnc3c(N[C@H]4CCN(Cc5ccccc5)C4)ncnc32)[C@H](O)[C@@H]1O [Example 59, (1R,2S,3R,5R)-3-[6-(1-benzyl-pyrrolidin-3(S)-ylamino)purin-9-yl]-5-hydroxymethylcyclopentane-1,2-diol] | – | 100 to 102 °C | –
COC[C@H]1C[C@@H](n2cnc3c(N[C@H]4CCN(Cc5ccccc5)C4)ncnc32)[C@H](O)[C@@H]1O [Example 60, (1R,2S,3R,5R)-3-[6-(1-benzyl-pyrrolidin-3(S)-ylamino)purin-9-yl]-5-methoxymethylcyclopentane-1,2-diol] | – | 95 to 96 °C | –
CC[C@@H](C)NC(=O)[C@H]1C[C@@H](n2cnc3c(N[C@H]4CCN(c5ccc(C(F)(F)F)cn5)C4)ncnc32)[C@H](O)[C@@H]1O [Example 62, (1S,2R,3S,4R)-2,3-dihydroxy-4-{6-[1-(5-trifluoromethyl-pyridin-2-yl)-pyrrolidin-3(S)-ylamino]-purin-9-yl}-cyclopentanecarboxylic acid-1(R)-methylpropylamide] | – | 206 to 212 °C (dec.) | –
